From article PMC8528301 (PLoS ONE, 2021)
Where two headings read alike, the source gives them in different places. Values belong to the compound of their own block, whether it stands above or below them.

How the values were obtained:
[1] = no reference given, cited from earlier work
[2] = serum
Description: (§1) To generate VD3 deficient and sufficient mice, day 4–5 estrus (E5-E6) pregnant C57BL/6J female mice from Jackson Laboratories (Bar Harbor, ME) were kept on the VD3 deficient (Harlan catalog no. 5A69, 0 IU of vitamin D) and VD3 sufficient diets, (catalog. No. 5BV8, 3.3 IU of vitamin D) to develop vitamin D deficient and vitamin D sufficient mice, respectively. Pregnant dams were maintained on these diets throughout pregnancy, and after parturition, and pups were maintained on the corresponding diets after weaning as described in [16]. The pups were age matched and both male and female, VD3 deficient and VD3 sufficient mice were used for Cyp3a expression, pharmacokinetic and efficacy studies.
To observe the effect of vitamin D status on hCYP3A4 expression, cryopreserved hCYP3A4 transgenic (tg) mouse sperm was used to re-derive the humanized CYP3A4 transgenic mouse model. Human CYP3A4 transgenic mice were obtained from the laboratory of Dr. Frank Gonzalez (Laboratory of Metabolism, Center for Cancer Research, National Cancer Institute, National Institutes of Health, Bethesda). To generate hCYP3A4-Tg VD3 deficient and sufficient mice, E5-E6 hCYP3A4-Tg pregnant female mice were kept on VD3 deficient and VD3 sufficient diets throughout pregnancy and after parturition as described for C57BL/6J mice above. Pups were maintained on the corresponding diets after weaning and were euthanized at 12 weeks of age for tissue collection, blood was collected by cardiac puncture and serum was isolated and stored at -80°C. Tissues such as intestine (duodenum), liver and kidney were harvested and stored in RNA later at -20°C.
Serum samples from all animals in this manuscript were collected but only a few samples were randomly selected across studies and sent to the Veterinary Diagnostic Laboratory at Michigan State University (Lansing, MI) for serum 25-(OH) VD3 analysis.

[3] = system: duodenal mCyp3a and drug efflux transporter mRNA expression; test: qPCR of Cyp3a and efflux transporter mRNA in duodenum of VD3 sufficient vs deficient C57BL/6 mice; type: in vivo, mouse; details: n=3
Description: as §1
Mouse intestine (duodenum), liver and kidney tissues stored in RNA later at -20°C were used for RNA isolation. Trizol (Ambion Life technologies, CA, USA or Thermo Fisher scientific, CA, USA) was used to extract RNA according to the manufacturers protocol. Sterile Omni tips (OMNI International, GA, USA) were used to homogenize the tissue using Omni tissue homogenizer. 500 ng of RNA was used to generate cDNA using the Thermoscript™ RT-PCR system (Invitrogen ThermoFisher, CA, USA). The cDNA was diluted to a total volume of 70 μL. Primers used for the amplification: […]
Real-time PCR quantification was performed using SYBR GreenER™ qPCR supermix for ABI PRISM Instrument (Life Technologies, Grand Island, NY) according to manufacturer’s instructions. Samples were run at the following conditions: 95°C for 15 min, 40 cycles of 92°C for 30 sec, 60°C for 30 sec, 68°C for 1 min followed by a dissociation step. The relative amounts of mRNAs in each sample were normalized to Villin or Gapdh for intestine samples or Gapdh values for liver and kidney samples to control for quality of the mRNA. Comparative CT (ΔΔCt) method was used to determine quantitative PCR values.
Fig 1 Cyp and transporter gene expression in duodenum of VD3 sufficient and deficient mice. Influence of VD3 deficiency on duodenal mCyp3a11, mCyp3a13, mCyp3a44 (A,B) and drug efflux transporter mRNA expression (C,D) in 12 wk old C57BL/6 mice (A, C)) and hCYP3A4-tg mice (B,D) (male, n = 3 and female, n = 3/strain). Data are expressed as mean (bars) + SD (error bars) fold change in mRNA expression in deficient mice relative to each mRNAs expression in sufficient mice set as one. Villin was used as an internal control to normalize the target gene expression data. Mann-Whitney nonparametric test on GraphPad was used to determine significance between the groups (**p<0.01, *p<0.05).

[4] = female C57BL/6, VD3 deficient vs sufficient = 1, Villin
[5] = male C57BL/6, VD3 deficient vs sufficient = 1, Villin

Structure (SMILES): C=C1/C(=C\C=C2/CCC[C@]3(C)[C@@H]([C@H](C)CCCC(C)(C)O)CC[C@@H]23)C[C@@H](O)C[C@@H]1O [1,25 (OH)2 VD3]
half-life ([1]; serum 1,25 (OH)2 VD3, biologically short lived): ~ 15 hours

Mean (25-(OH) VD3 ([2]; C57BL/6, VD3 Deficient, n=6): 12 nmol/L | Mean (25-(OH) VD3 ([2]; C57BL/6, VD3 Sufficient, n=2): 324.50 nmol/L | Mean (25-(OH) VD3 ([2]; hCYP3A4-tg, VD3 Deficient, n=4): 14.75 nmol/L | Mean (25-(OH) VD3 ([2]; hCYP3A4-tg, VD3 Sufficient, n=4): 219 nmol/L
Structure (SMILES): C=C1CC[C@H](O)C/C1=C/C=C1\CCC[C@]2(C)[C@@H]([C@H](C)CCCC(C)(C)O)CC[C@@H]12 [25-(OH) VD3]
half-life ([1]; serum 25(OH)VD3): 15 days

Structure (SMILES): C=C1CC[C@H](O)C/C1=C/C=C1\CCC[C@]2(C)[C@@H]([C@H](C)CCCC(C)C)CC[C@@H]12 [VD3, Vitamin D3]
avg fold chnge Cyp3a11 mRNA [3, 4]: 0.2614 fold | avg fold chnge cyp3a13 mRNA [3, 4]: 0.2206 fold | avg fold chnge cyp3a25 mRNA [3, 4]: 1.068 fold | avg fold chnge cyp3a44 mRNA [3, 4]: 0.139 fold | avg fold change Cyp3a11 mRNA ([3]; male C57BL/6, VD3 deficient (GCD) vs VD3 sufficient = 1, normalised to Villin): 0.299 fold | avg fold change Cyp3a13 mRNA [3, 5]: 0.1229 fold | avg fold change Cyp3a25 mRNA [3, 5]: 0.2366 fold | avg fold change Cyp3a41 mRNA [3, 5]: 0.2185 fold | avg fold change Cyp3a44 mRNA [3, 5]: 0.1467 fold | avg fold change bcrp mRNA [3, 5]: 0.5071 fold | avg fold change mPXR mRNA [3, 5]: 0.5697 fold | avg fold change mVDR mRNA [3, 5]: 0.3209 fold | avg fold change mdr1a mRNA [3, 5]: 0.5457 fold
